Assay results published in patent US9169254B2, “Spiroimidazolone derivative” (Chugai Seiyaku Kabushiki Kaisha, priority 2009, dated 2015).

Molecular target: T1, human PTH1 receptor (Homo sapiens, UniProt Q03431)
T1 sequence (Q03431 27-593): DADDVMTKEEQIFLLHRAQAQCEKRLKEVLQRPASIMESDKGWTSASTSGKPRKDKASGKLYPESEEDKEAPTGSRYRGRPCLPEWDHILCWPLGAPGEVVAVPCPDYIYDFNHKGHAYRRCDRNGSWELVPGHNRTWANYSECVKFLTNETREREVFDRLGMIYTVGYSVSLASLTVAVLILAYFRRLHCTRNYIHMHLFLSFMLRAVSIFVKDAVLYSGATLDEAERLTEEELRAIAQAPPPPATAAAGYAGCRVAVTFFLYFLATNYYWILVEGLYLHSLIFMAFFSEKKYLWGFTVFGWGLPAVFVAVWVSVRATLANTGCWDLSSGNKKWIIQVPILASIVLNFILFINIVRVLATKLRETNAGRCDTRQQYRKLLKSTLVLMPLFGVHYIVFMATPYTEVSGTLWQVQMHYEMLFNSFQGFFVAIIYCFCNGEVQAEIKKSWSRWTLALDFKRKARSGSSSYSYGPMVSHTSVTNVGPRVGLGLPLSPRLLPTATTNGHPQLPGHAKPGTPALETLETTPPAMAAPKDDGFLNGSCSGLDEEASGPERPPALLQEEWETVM
Assay: In vitro cAMP signal activity in HKRK-B7 cells (LLC-PK1 cells overexpressing the human PTH1 receptor)
Assay type: cell-based
Conditions: HKRK-B7 cells; compound at 1×10^−3 M; cAMP produced as percentage of that produced by hPTH(1-34) at 100 nM

`CC(C)COC(=O)NCc1ccc(/C=C/S(=O)(=O)N2CCC3(CC2)N=C(C2CCCCC2)NC3=O)cc1` [Compound 486, {4-[(E)-2-(2-cyclohexyl-4-oxo-1,3,8-triaza-spiro[4.5]dec-1-ene-8-sulfonyl)-vinyl]-benzyl}-carbamic acid isobutyl ester] was tested. Which “cAMP production activity (%)” value did it give?
Its value is 59%.

`CC(=O)Nc1ccc(CCS(=O)(=O)N2CCC3(CC2)N=C([C@H]2CC[C@H](OCCCF)CC2)NC3=O)c(C)c1` [Compound 915, N-[4-(2-{2-[4-(3-fluoro-propoxy)-cyclohexyl]-4-oxo-1,3,8-triaza-spiro[4.5]dec-1-ene-8-sulfonyl}-ethyl)-3-methyl-phenyl]-acetamide] was tested. Which “cAMP production activity (%)” value did it give?
The value was 61%.

For `CNc1cc(C)c(/C=C/S(=O)(=O)N2CCC3(CC2)N=C(CCCCCCCCC(F)(F)F)NC3=O)c(C)c1` [Compound 690, 8-[(E)-2-(2,6-Dimethyl-4-methylamino-phenyl)-ethenesulfonyl]-2-(9,9,9-trifluoro-nonyl)-1,3,8-triaza-spiro[4.5]dec-1-en-4-one], which “cAMP production activity (%)” value is on record?
Its value is 86%.

Which “cAMP production activity (%)” value does the source give for `Nc1cccc(CCCS(=O)(=O)N2CCC3(CC2)N=C(C2CCCCC2)NC3=O)c1` [Compound 328, 8-[3-(3-Amino-phenyl)-propane-1-sulfonyl]-2-cyclohexyl-1,3,8-triaza-spiro[4.5]dec-1-en-4-one] here?
The value was 41%.

Which “cAMP production activity (%)” value does the source give for `CNc1cc(C)c(CCS(=O)(=O)N2CCC3(CC2)N=C(CCCCCCCC(F)(F)C(F)(F)F)NC3=O)c(C)c1` [Compound 1035, 8-[2-(2,6-Dimethyl-4-methylamino-phenyl)-ethanesulfonyl]-2-(8,8,9,9,9-pentafluoro-nonyl)-1,3,8-triaza-spiro[4.5]dec-1-en-4-one] here?
Its value is 77%.

`Cc1onc(-c2ccccc2)c1S(=O)(=O)N1CCC2(CC1)N=C(C1CCCCC1)NC2=O` [Compound 52, 2-cyclohexyl-8-(5-methyl-3-phenyl-isoxazole-4-sulfonyl)-1,3,8-triaza-spiro[4.5]dec-1-en-4-one] was tested. Which “cAMP production activity (%)” value did it give?
Its value is 23%.

`Cc1cc(N(C)C(N)=O)cc(C)c1/C=C/S(=O)(=O)N1CCC2(CC1)N=C(CCCCCCCCC(F)(F)F)NC2=O` [Compound 1304, 1-(3,5-dimethyl-4-{(E)-2-[4-oxo-2-(9,9,9-trifluoro-nonyl)-1,3,8-triaza-spiro[4.5]dec-1-ene-8-sulfonyl]-vinyl}-phenyl)-1-methyl-urea] was tested. Which “cAMP production activity (%)” value did it give?
Its value is 107%.

For `CON(C)C(=O)c1cc(C)c(/C=C/S(=O)(=O)N2CCC3(CC2)N=C(C2CCC(C)CC2)NC3=O)c(C)c1` (centres unmarked) [Compound 998, N-Methoxy-3,5,N-trimethyl-4-{(E)-2-[2-(4-methyl-cyclohexyl)-4-oxo-1,3,8-triaza-spiro[4.5]dec-1-ene-8-sulfonyl]-vinyl}-benzamide], which “cAMP production activity (%)” value is on record?
The value was 92%.

`O=C1NC(C2CCCCC2)=NC12CCN(S(=O)(=O)CCc1cccc3ccccc13)CC2` [Compound 61, 2-cyclohexyl-8-(2-naphthalen-1-yl-ethanesulfonyl)-1,3,8-triaza-spiro[4.5]dec-1-en-4-one] was tested. Which “cAMP production activity (%)” value did it give?
Its value is 43%.

How did the “cAMP production activity (%)” value turn out when `Cc1cc(N(C)C(N)=O)cc(C)c1CCS(=O)(=O)N1CCC2(CC1)N=C(C(C)(F)F)NC2=O` [Compound 1311, 1-(4-{2-[2-(1,1-difluoro-ethyl)-4-oxo-1,3,8-triaza-spiro[4.5]dec-1-ene-8-sulfonyl]-ethyl}-3,5-dimethyl-phenyl)-1-methyl-urea] was run?
Its value is 79%.

How did the “cAMP production activity (%)” value turn out when `Cc1cc(CN2C(=O)NC(C)(C)C2=O)cc(C)c1/C=C/S(=O)(=O)N1CCC2(CC1)N=C(C1CCC(CCC(F)(F)F)CC1)NC2=O` (centres unmarked) [Compound 555, 3-[3,5-dimethyl-4-((E)-2-{4-oxo-2-[4-(3,3,3-trifluoro-propyl)-cyclohexyl]-1,3,8-triaza-spiro[4.5]dec-1-ene-8-sulfonyl}-vinyl)-benzyl]-5,5-dimethyl-imidazolidine-2,4-dione] was run?
Its value is 40%.

For `CONC(=O)Cc1ccc(CCS(=O)(=O)N2CCC3(CC2)N=C(C2CCC(C)CC2)NC3=O)c(C)c1` (centres unmarked) [Compound 1388, N-methoxy-2-(3-methyl-4-{2-[2-(4-methyl-cyclohexyl)-4-oxo-1,3,8-triaza-spiro[4.5]dec-1-ene-8-sulfonyl]-ethyl}-phenyl)-acetamide], which “cAMP production activity (%)” value is on record?
Its value is 59%.

How did the “cAMP production activity (%)” value turn out when `Cc1cc(N(C)C(N)=O)cc(C)c1CCS(=O)(=O)N1CCC2(CC1)N=C(c1cccc(SC(F)(F)F)c1)NC2=O` [Compound 1306, 1-(3,5-dimethyl-4-{2-[4-oxo-2-(3-trifluoromethylsulfanyl-phenyl)-1,3,8-triaza-spiro[4.5]dec-1-ene-8-sulfonyl]-ethyl}-phenyl)-1-methyl-urea] was run?
Its value is 159%.

How did the “cAMP production activity (%)” value turn out when `Cc1cc(S(=O)(=O)NC(CO)(CO)CO)ccc1CCS(=O)(=O)N1CCC2(CC1)N=C(c1cccc(C(F)(F)F)c1)NC2=O` [Compound 854, N-(2-hydroxy-1,1-bis-hydroxymethyl-ethyl)-3-methyl-4-{2-[4-oxo-2-(3-trifluoromethyl-phenyl)-1,3,8-triaza-spiro[4.5]dec-1-ene-8-sulfonyl]-ethyl}-benzenesulfonamide] was run?
Its value is 80%.

Which “cAMP production activity (%)” value does the source give for `O=C1NC(C2CCCCC2)=NC12CCN(S(=O)(=O)CCCCCc1cccc3[nH]ccc13)CC2` [Compound 262, 2-cyclohexyl-8-[5-(1H-indol-4-yl)-pentane-1-sulfonyl]-1,3,8-triaza-spiro[4.5]dec-1-en-4-one] here?
The value was 26%.

With `Cc1cc(N2C(=O)CNC2=O)cc(C)c1CCS(=O)(=O)N1CCC2(CC1)N=C(c1ccc(F)c(C(F)(F)F)c1)NC2=O` [Compound 800, 3-(4-{2-[2-(4-fluoro-3-trifluoromethyl-phenyl)-4-oxo-1,3,8-triaza-spiro[4.5]dec-1-ene-8-sulfonyl]-ethyl}-3,5-dimethyl-phenyl)-imidazolidine-2,4-dione] as the molecule, how does the “cAMP production activity (%)” value read?
Its value is 77%.

Which “cAMP production activity (%)” value does the source give for `Cc1cc(C(=O)N(C)C)ccc1CCS(=O)(=O)N1CCC2(CC1)N=C(c1cccc(OC(F)(F)C(F)F)c1)NC2=O` [Compound 140, 3,N,N-trimethyl-4-(2-{4-oxo-2-[3-(1,1,2,2-tetrafluoro-ethoxy)-phenyl]-1,3,8-triaza-spiro[4.5]dec-1-ene-8-sulfonyl}-ethyl)-benzamide] here?
The value was 77%.

How did the “cAMP production activity (%)” value turn out when `Cc1cc(N2CCOCC2=O)cc(C)c1/C=C/S(=O)(=O)N1CCC2(CC1)N=C(C1CCC(C)CC1)NC2=O` (centres unmarked) [Compound 515, 8-{(E)-2-[2,6-dimethyl-4-(3-oxo-morpholin-4-yl)-phenyl]-ethenesulfonyl}-2-(4-methyl-cyclohexyl)-1,3,8-triaza-spiro[4.5]dec-1-en-4-one] was run?
The value was 113%.

`Cc1cc(C(=O)N2CCC(CO)CC2)cc(C)c1/C=C/[S@TB4](=O)(=O)N1CCC2(CC1)N=C(c1ccc(F)c(C(F)(F)F)c1)NC2=O` [Compound 1162, 2-(4-fluoro-3-trifluoromethyl-phenyl)-8-{(E)-2-[4-(4-hydroxymethyl-piperidine-1-carbonyl)-2,6-dimethyl-phenyl]-ethenesulfonyl}-1,3,8-triaza-spiro[4.5]dec-1-en-4-one] was tested. Which “cAMP production activity (%)” value did it give?
The value was 112%.

How did the “cAMP production activity (%)” value turn out when `CCCCCc1ccc(C2=NC3(CCN(S(=O)(=O)CCc4c(C)cc(N(C)C(N)=O)cc4C)CC3)C(=O)N2)cc1` [Compound 1342, 1-(3,5-dimethyl-4-{2-[4-oxo-2-(4-pentyl-phenyl)-1,3,8-triaza-spiro[4.5]dec-1-ene-8-sulfonyl]-ethyl}-phenyl)-1-methyl-urea] was run?
The value was 114%.
